From the OligoGym collection
These antisense oligonucleotides have a phosphorothioate backbone; sugars and methylation of C are not fully specified.

Columns and labels:
Details in all cases: ASO
MAP2K6 = molecular target: MAP2K6
SMAD2 = molecular target: SMAD2
PCK2 = molecular target: PCK2
RHOC = molecular target: RHOC
Note: test concentration or dose not given here.

Sequence: CTGAGACATTTTCCCCTTTC
- remaining target (mRNA or protein) (fraction of control) (MAP2K6): 0.91

Sequence: CTGAGCCAGAAGAGCAGC
- remaining target (mRNA or protein) (fraction of control) (SMAD2): 0.18

Sequence: TATTACAGTTTTGAGTGG
- remaining target (mRNA or protein) (fraction of control) (SMAD2): 0.52

Sequence: GAGTGGTGATGGCTTTCT
- remaining target (mRNA or protein) (fraction of control) (SMAD2): 0.4

Sequence: GAATTTATCTAGTGATGTAT
- remaining target (mRNA or protein) (fraction of control) (MAP2K6): ≥ 1

Sequence: CATTAGAAGGCTTGACGTCT
- remaining target (mRNA or protein) (fraction of control) (MAP2K6): 0.67

Sequence: AGACTAGGCCTCAGGTCACA
- remaining target (mRNA or protein) (fraction of control) (PCK2): ≥ 1

Sequence: GGCCCGGAGTCGACCTTCAC
- remaining target (mRNA or protein) (fraction of control) (PCK2): 0.68

Sequence: CCAGTCGGGTCATAATACGC
- remaining target (mRNA or protein) (fraction of control) (PCK2): 0.74

Sequence: GGAAAGAGTAGTAGGAGA
- remaining target (mRNA or protein) (fraction of control) (SMAD2): 0.48

Sequence: GGCACTAGGGAAGGCGGCTG
- remaining target (mRNA or protein) (fraction of control) (PCK2): 0.84

Sequence: TCACGCCGGAACCAGTTGAC
- remaining target (mRNA or protein) (fraction of control) (PCK2): ≥ 1

Sequence: TTAGTCTCCAAGAATCAGTT
- remaining target (mRNA or protein) (fraction of control) (MAP2K6): 0.96

Sequence: TTTCCAGGGTTTGCCCAGCC
- remaining target (mRNA or protein) (fraction of control) (PCK2): 0.55

Sequence: TCACGAACCTCCTGTTCCCA
- remaining target (mRNA or protein) (fraction of control) (PCK2): 0.6

Sequence: TTCCTGCCCATTCTGCTC
- remaining target (mRNA or protein) (fraction of control) (SMAD2): 0.08

Sequence: CTGCATGCAGCCTGGAAACC
- remaining target (mRNA or protein) (fraction of control) (PCK2): 0.83

Sequence: TCTGTAGCTAGTTTTGCAAC
- remaining target (mRNA or protein) (fraction of control) (MAP2K6): 0.88

Sequence: GCGTTGGGATTGGTGGTGGC
- remaining target (mRNA or protein) (fraction of control) (PCK2): 0.82

Sequence: GATAGTAAACAGTCCATA
- remaining target (mRNA or protein) (fraction of control) (SMAD2): 0.5

Sequence: CTTCACCAGACTTTTCAC
- remaining target (mRNA or protein) (fraction of control) (SMAD2): 0.15

Sequence: AGAAGAAAACAAACAAACAA
- remaining target (mRNA or protein) (fraction of control) (MAP2K6): 0.82

Sequence: TCACATTTTGTGCACACGTC
- remaining target (mRNA or protein) (fraction of control) (PCK2): 0.76

Sequence: CTAATCGTCCTGTTTTCT
- remaining target (mRNA or protein) (fraction of control) (SMAD2): 0.33

Sequence: CTCTTCACAACTGGCGGC
- remaining target (mRNA or protein) (fraction of control) (SMAD2): 0.16

Sequence: TGATCTCCCGCTGGTCGGGC
- remaining target (mRNA or protein) (fraction of control) (PCK2): 0.73

Sequence: TTAGTGTTTTCTGGAATG
- remaining target (mRNA or protein) (fraction of control) (SMAD2): 0.48

Sequence: GAGCTGCACCCCGATGCGGG
- remaining target (mRNA or protein) (fraction of control) (PCK2): ≥ 1

Sequence: AAAGCCATCTACAGTGAG
- remaining target (mRNA or protein) (fraction of control) (SMAD2): 0.34

Sequence: CTACAAATCTACTTATAATT
- remaining target (mRNA or protein) (fraction of control) (MAP2K6): 0.99

Sequence: CCTTCTTGTCATTTCTAC
- remaining target (mRNA or protein) (fraction of control) (SMAD2): 0.57

Sequence: AGTACACGCCACCATCACTG
- remaining target (mRNA or protein) (fraction of control) (PCK2): 0.91

Sequence: TGCCTTCCCTATTCCCAGAT
- remaining target (mRNA or protein) (fraction of control) (PCK2): 0.82

Sequence: GTTTCTCCAACCCTCTGA
- remaining target (mRNA or protein) (fraction of control) (SMAD2): 0.2

Sequence: ACTGTAGAGGTCCATTCA
- remaining target (mRNA or protein) (fraction of control) (SMAD2): 0.42

Sequence: CCTTTCGACTGAGACATTTT
- remaining target (mRNA or protein) (fraction of control) (MAP2K6): ≥ 1

Sequence: AGATTACAGCCTGGTGGA
- remaining target (mRNA or protein) (fraction of control) (SMAD2): 0.57

Sequence: GGTGATGCCCAGGATCAGCA
- remaining target (mRNA or protein) (fraction of control) (PCK2): 0.78

Sequence: TTGCACGGCCACTGGCTCAC
- remaining target (mRNA or protein) (fraction of control) (PCK2): 0.94

Sequence: ACACATGGCAGGAGGGACAA
- remaining target (mRNA or protein) (fraction of control) (MAP2K6): 0.78

Sequence: GAGCTGAGATGAAGTCAA
- remaining target (mRNA or protein) (fraction of control) (RHOC): 0.71

Sequence: CATTTTCCCCTTTCCTTTGA
- remaining target (mRNA or protein) (fraction of control) (MAP2K6): ≥ 1

Sequence: TTTCGACTGAGACATTTTCC
- remaining target (mRNA or protein) (fraction of control) (MAP2K6): ≥ 1

Sequence: AGGTCTTCCCACAGGCAC
- remaining target (mRNA or protein) (fraction of control) (RHOC): 0.6

Sequence: AATGCCAGTGGGAAGCTGGC
- remaining target (mRNA or protein) (fraction of control) (PCK2): 0.88

Sequence: ACTCAAGGTAGCCAAAGG
- remaining target (mRNA or protein) (fraction of control) (RHOC): 0.67

Sequence: GACATTTTCCCCTTTCCTTT
- remaining target (mRNA or protein) (fraction of control) (MAP2K6): 0.85

Sequence: TAAAGTGCTGGTGTGTGA
- remaining target (mRNA or protein) (fraction of control) (RHOC): 0.61

Sequence: GAGGTGGCGTTTCTGGAA
- remaining target (mRNA or protein) (fraction of control) (SMAD2): 0.29

Sequence: GAGACATTTTCCCCTTTCCT
- remaining target (mRNA or protein) (fraction of control) (MAP2K6): 0.66

Sequence: GTTTCTCTTGACCGATGCAG
- remaining target (mRNA or protein) (fraction of control) (MAP2K6): 0.55

Sequence: CCGGGCCAGCCGAGAGGCGA
- remaining target (mRNA or protein) (fraction of control) (PCK2): ≥ 1

Sequence: GGAAATCGAAGGATGGCCAA
- remaining target (mRNA or protein) (fraction of control) (MAP2K6): ≥ 1

Sequence: AGTTCTCAAAGACAGTAG
- remaining target (mRNA or protein) (fraction of control) (RHOC): 0.62

Sequence: GAGCATTCTCCCCAAAGCCT
- remaining target (mRNA or protein) (fraction of control) (PCK2): 0.95

Sequence: TTGCTGAAGACGATGAGG
- remaining target (mRNA or protein) (fraction of control) (RHOC): 0.77

Sequence: CTTGCCCAGCAGGGAGTTGC
- remaining target (mRNA or protein) (fraction of control) (PCK2): ≥ 1

Sequence: GGAAGGGCAGGGCATAGG
- remaining target (mRNA or protein) (fraction of control) (RHOC): 0.79

Sequence: AAACTTCCCCACCTATGT
- remaining target (mRNA or protein) (fraction of control) (SMAD2): 0.18

Sequence: GCCAGGGCTGGCAGCTAAAA
- remaining target (mRNA or protein) (fraction of control) (MAP2K6): 0.8

Sequence: ATGAGGAGGCAGGTCTTC
- remaining target (mRNA or protein) (fraction of control) (RHOC): 0.59

Sequence: ACAGATTCCACAAGGTGC
- remaining target (mRNA or protein) (fraction of control) (SMAD2): 0.22

Sequence: GTAGTGCCCGAAGTTGTAGC
- remaining target (mRNA or protein) (fraction of control) (PCK2): 0.77

Sequence: CTCTCCTCCGCCTGCTCC
- remaining target (mRNA or protein) (fraction of control) (SMAD2): 0.01

Sequence: TCGTCTTGCCTCAGGTCC
- remaining target (mRNA or protein) (fraction of control) (RHOC): 0.21

Sequence: GAGAGCCTGTGTCCATAC
- remaining target (mRNA or protein) (fraction of control) (SMAD2): 0.29

Sequence: CTTTGTGTTCTGCTGCAGCA
- remaining target (mRNA or protein) (fraction of control) (PCK2): 0.49

Sequence: CAAGTGTCAGAAGAACCAAA
- remaining target (mRNA or protein) (fraction of control) (MAP2K6): 0.7
